The target in this assay is human LRRK2 kinase (Homo sapiens, UniProt Q5S007). The conditions noted are these: LRRK2, ADP-Glo, ATP 10 μM, 60 minutes at 25° C. On the technique in general: ADP-Glo turns the ADP formed in a reaction into a luminescent signal.

IC50 data for 30 compounds are collected here from patent US12479847B2 (DANA-FARBER CANCER INSTITUTE, INC., priority 2019, dated 2025).

Some results are limits rather than exact numbers.

Chain of human LRRK2 kinase (Q5S007 whole entry): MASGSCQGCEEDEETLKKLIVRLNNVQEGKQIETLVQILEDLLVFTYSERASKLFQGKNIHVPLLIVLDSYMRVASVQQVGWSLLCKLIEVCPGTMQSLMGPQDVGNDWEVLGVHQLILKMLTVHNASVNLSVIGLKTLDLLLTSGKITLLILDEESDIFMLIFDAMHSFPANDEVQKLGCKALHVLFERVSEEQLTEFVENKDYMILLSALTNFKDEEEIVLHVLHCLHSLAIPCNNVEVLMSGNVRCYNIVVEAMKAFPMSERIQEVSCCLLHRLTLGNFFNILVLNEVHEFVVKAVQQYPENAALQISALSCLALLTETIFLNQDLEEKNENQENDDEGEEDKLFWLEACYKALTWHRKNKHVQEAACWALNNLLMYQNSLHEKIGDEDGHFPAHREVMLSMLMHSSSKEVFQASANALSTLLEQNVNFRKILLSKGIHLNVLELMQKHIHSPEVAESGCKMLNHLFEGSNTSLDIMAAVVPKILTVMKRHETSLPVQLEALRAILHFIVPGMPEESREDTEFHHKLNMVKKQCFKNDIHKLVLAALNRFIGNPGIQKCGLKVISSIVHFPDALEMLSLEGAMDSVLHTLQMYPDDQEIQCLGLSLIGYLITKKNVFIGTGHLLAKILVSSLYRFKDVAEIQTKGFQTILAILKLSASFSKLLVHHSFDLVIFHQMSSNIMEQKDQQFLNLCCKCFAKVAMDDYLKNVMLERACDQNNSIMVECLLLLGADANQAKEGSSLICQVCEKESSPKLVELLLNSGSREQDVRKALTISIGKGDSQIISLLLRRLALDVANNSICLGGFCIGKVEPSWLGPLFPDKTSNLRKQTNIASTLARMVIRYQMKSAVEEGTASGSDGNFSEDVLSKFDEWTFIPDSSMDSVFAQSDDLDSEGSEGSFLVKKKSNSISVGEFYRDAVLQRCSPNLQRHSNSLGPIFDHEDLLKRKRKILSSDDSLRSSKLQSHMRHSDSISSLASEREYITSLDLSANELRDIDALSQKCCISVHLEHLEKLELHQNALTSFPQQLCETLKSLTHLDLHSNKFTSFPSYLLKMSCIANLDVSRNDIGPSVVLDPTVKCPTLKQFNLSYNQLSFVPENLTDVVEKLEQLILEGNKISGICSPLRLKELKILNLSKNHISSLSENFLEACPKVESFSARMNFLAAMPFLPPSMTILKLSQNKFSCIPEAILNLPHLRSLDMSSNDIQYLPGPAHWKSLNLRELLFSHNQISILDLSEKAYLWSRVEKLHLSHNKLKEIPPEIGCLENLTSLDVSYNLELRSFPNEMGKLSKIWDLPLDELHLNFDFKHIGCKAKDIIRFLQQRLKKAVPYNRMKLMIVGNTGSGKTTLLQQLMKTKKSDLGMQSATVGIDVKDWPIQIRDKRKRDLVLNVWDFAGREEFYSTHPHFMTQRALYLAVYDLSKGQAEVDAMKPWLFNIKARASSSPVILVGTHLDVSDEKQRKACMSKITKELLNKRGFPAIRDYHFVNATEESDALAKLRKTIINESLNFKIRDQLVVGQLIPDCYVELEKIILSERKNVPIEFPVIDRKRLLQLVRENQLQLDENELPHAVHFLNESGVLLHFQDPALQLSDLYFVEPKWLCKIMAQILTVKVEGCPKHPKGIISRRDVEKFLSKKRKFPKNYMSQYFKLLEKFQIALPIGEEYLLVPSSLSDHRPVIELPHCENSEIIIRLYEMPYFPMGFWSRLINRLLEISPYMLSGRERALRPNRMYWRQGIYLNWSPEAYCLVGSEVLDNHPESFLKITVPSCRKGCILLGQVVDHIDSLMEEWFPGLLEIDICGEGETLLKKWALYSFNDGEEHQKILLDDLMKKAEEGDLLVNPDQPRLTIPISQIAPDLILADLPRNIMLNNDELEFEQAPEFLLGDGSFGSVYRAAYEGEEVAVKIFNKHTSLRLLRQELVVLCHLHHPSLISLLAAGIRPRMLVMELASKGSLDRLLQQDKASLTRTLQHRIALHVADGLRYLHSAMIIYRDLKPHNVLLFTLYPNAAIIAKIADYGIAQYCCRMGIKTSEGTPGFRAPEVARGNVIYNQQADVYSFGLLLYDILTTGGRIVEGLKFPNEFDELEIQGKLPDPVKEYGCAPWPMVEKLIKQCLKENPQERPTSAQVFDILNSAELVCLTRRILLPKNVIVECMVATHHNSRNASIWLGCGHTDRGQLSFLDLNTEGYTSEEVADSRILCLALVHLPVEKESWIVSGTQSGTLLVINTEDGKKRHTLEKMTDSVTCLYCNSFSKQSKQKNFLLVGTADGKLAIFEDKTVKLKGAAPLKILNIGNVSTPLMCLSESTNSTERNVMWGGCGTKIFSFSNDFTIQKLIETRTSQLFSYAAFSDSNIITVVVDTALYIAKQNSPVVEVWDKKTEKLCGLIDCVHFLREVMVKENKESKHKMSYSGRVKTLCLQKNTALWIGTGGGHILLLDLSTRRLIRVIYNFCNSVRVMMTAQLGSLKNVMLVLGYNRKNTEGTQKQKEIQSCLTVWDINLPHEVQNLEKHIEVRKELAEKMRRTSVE
Protocol: Assay kits from Promega™ Corporation were used according to instructions and adapted as outlined herein. […] The kinase reaction was performed with kinase reaction buffer (40 mM Tris base pH 7.4, 20 mM MgCl2, 0.5 mM dithiothreitol), 0.1 mg/ml bovine serum albumin, distilled H2O). […] In brief, the kinase reactions were started by addition of ATP to the kinase reaction mixture. The resulting mixture was incubated for 60 minutes at 25° C., and then stopped by adding 5 μl of ADP-Glo™ reagent. After incubation at room temperature in the dark for 40 minutes, 10 μl of kinase detection reagent was added per well, and the mixture was incubated for 10 minutes. […] Positive and negative controls were performed in 0.5% DMSO in the presence and absence of LRRK2 kinases. Curve fitting and data presentations were performed using GraphPad Prism version 5.0 (GraphPad Software, Inc.).

For `COc1cc(S(=O)(=O)N2CCC(N3CCOCC3)CC2)ccc1Nc1nc(NC2CCC2)c2c(Cl)c[nH]c2n1` [Compound 28, 5-chloro-N4-cyclobutyl-N2-(2-methoxy-4-((4-morpholinopiperidin-1-yl)sulfonyl)phenyl)-7H-pyrrolo[2,3-d]pyrimidine-2,4-diamine], the IC50 – broadly, the concentration that gives 50% inhibition – was in the range of 100 to 1000 nM.

As for `O=C(c1ccc(Nc2nc(NC3CC3)c3c(Cl)c[nH]c3n2)c2c1OCCO2)N1CCOCC1` [Compound 27, (8-((5-chloro-4-(cyclopropylamino)-7H-pyrrolo[2,3-d]pyrimidin-2-yl)amino)-2,3-dihydrobenzo[b][1,4]dioxin-5-yl)(morpholino)methanone], the IC50 is < 10 nM.

On to `COCCNc1nc(Nc2ccc(C(=O)N3CCOCC3)c3c2OCCO3)nc2[nH]cc(Cl)c12` [Compound 9, (8-((5-chloro-4-((2-methoxyethyl)amino)-7H-pyrrolo[2,3-d]pyrimidin-2-yl)amino)-2,3-dihydrobenzo[b][1,4]dioxin-5-yl)(morpholino)methanone], for which the IC50 was < 10 nM.

Take `CCCCNc1nc(Nc2ccc(S(=O)(=O)N3CCOCC3)cc2OC)nc2[nH]cc(Cl)c12` [Compound 71, N4-butyl-5-chloro-N2-(2-methoxy-4-(morpholinosulfonyl)phenyl)-7H-pyrrolo[2,3-d]pyrimidine-2,4-diamine]: the IC50 is 10 to 100 nM.

For the compound `COc1cc(P2(=O)CCN(C(C)=O)CC2)ccc1Nc1nc(NC2CC2)c2c(Cl)c[nH]c2n1` [Compound 91, 1-(4-(4-((5-chloro-4-(cyclopropylamino)-7H-pyrrolo[2,3-d]pyrimidin-2-yl)amino)-3-methoxyphenyl)-4-oxido-1,4-azaphosphinan-1-yl)ethan-1-one], the IC50 was < 10 nM.

The compound `COc1cc(S(=O)(=O)N2CCOCC2)ccc1Nc1nc(NCC2CCCC2)c2c(Cl)c[nH]c2n1` [Compound 45, 5-chloro-N4-(cyclopentylmethyl)-N2-(2-methoxy-4-(morpholinosulfonyl)phenyl)-7H-pyrrolo[2,3-d]pyrimidine-2,4-diamine] yielded an IC50 of 100 to 1000 nM.

Consider `CCNc1nc(Nc2ccc(C(=O)N3CCC(N4CCOCC4)CC3)c3c2OCCO3)nc2[nH]cc(Cl)c12` [Compound 1, (8-((5-chloro-4-(ethylamino)-7H-pyrrolo[2,3-d]pyrimidin-2-yl)amino)-2,3-dihydrobenzo[b][1,4]dioxin-5-yl)(4-morpholinopiperidin-1-yl)methanone], for which the IC50 is < 10 nM.

Regarding `COc1cc(S(C)(=O)=O)ccc1Nc1nc(NC2CCCC2)c2c(Cl)c[nH]c2n1` [Compound 57, 5-chloro-N4-cyclopentyl-N2-(2-methoxy-4-(methylsulfonyl)phenyl)-7H-pyrrolo[2,3-d]pyrimidine-2,4-diamine], the half-inhibitory concentration (IC50) was in the range of 100 to 1000 nM.

Turning to `CCCNc1nc(Nc2ccc(P3(=O)CCN(C4CC4)CC3)cc2OC)nc2[nH]cc(Cl)c12` [Compound 99, 4-(4-((5-chloro-4-(propylamino)-7H-pyrrolo[2,3-d]pyrimidin-2-yl)amino)-3-methoxyphenyl)-1-cyclopropyl-1,4-azaphosphinane 4-oxide], the IC50 lay in the range of 10 to 100 nM.

`CCCNc1nc(Nc2ccc(P3(=O)CCN(C(C)=O)CC3)cc2OC)nc2[nH]cc(Cl)c12` [Compound 100, 1-(4-(4-((5-chloro-4-(propylamino)-7H-pyrrolo[2,3-d]pyrimidin-2-yl)amino)-3-methoxyphenyl)-4-oxido-1,4-azaphosphinan-1-yl)ethan-1-one]: the IC50 fell in the range of 10 to 100 nM.

For the compound `CCNc1nc(Nc2ccc(P3(=O)CCN(C(C)=O)CC3)cc2OC)nc2[nH]cc(Cl)c12` [Compound 98], the IC50 was < 10 nM.

`COc1cc(S(=O)(=O)N2CCC(N3CCOCC3)CC2)ccc1Nc1nc(NC2CCCC2)c2c(Cl)c[nH]c2n1` [Compound 56, 5-chloro-N4-cyclopentyl-N2-(2-methoxy-4-((4-morpholinopiperidin-1-yl)sulfonyl)phenyl)-7H-pyrrolo[2,3-d]pyrimidine-2,4-diamine] showed an IC50 of 10 to 100 nM.

Compound `CNc1nc(Nc2ccc(P3(=O)CCN(C4CC4)CC3)cc2OC)nc2[nH]cc(Cl)c12` [Compound 85, 4-(4-((5-chloro-4-(methylamino)-7H-pyrrolo[2,3-d]pyrimidin-2-yl)amino)-3-methoxyphenyl)-1-cyclopropyl-1,4-azaphosphinane 4-oxide] yielded an IC50 of 10 to 100 nM.

In the case of `CNc1nc(Nc2ccc(C(=O)N3CCC(N4CCOCC4)CC3)c3c2OCC3)nc2[nH]cc(Cl)c12` [Compound 86, (7-((5-chloro-4-(methylamino)-7H-pyrrolo[2,3-d]pyrimidin-2-yl)amino)-2,3-dihydrobenzofuran-4-yl)(4-morpholinopiperidin-1-yl)methanone], the IC50 was < 10 nM.

`COc1cc(S(=O)(=O)N2CCC(N3CCOCC3)CC2)ccc1Nc1nc(NC2CC2)c2c(Cl)c[nH]c2n1` [Compound 25, 5-chloro-N4-cyclopropyl-N2-(2-methoxy-4-((4-morpholinopiperidin-1-yl)sulfonyl)phenyl)-7H-pyrrolo[2,3-d]pyrimidine-2,4-diamine]: the 50% inhibitory concentration (IC50) was < 10 nM.

Take `COc1cc(S(=O)(=O)N2CCOCC2)ccc1Nc1nc(NC2CCCCC2)c2c(Cl)c[nH]c2n1` [Compound 58, 5-chloro-N4-cyclohexyl-N2-(2-methoxy-4-(morpholinosulfonyl)phenyl)-7H-pyrrolo[2,3-d]pyrimidine-2,4-diamine]: the concentration for half-maximal inhibition (IC50) lay in the range of 100 to 1000 nM.

`COc1cc(S(C)(=O)=O)ccc1Nc1nc(NC2CCC2)c2c(Cl)c[nH]c2n1` [Compound 29, 5-chloro-N4-cyclobutyl-N2-(2-methoxy-4-(methylsulfonyl)phenyl)-7H-pyrrolo[2,3-d]pyrimidine-2,4-diamine]: the half-maximal inhibitory concentration (IC50) is 10 to 100 nM.

Compound `CCCNc1nc(Nc2ccc(C(=O)N3CCC(N4CCOCC4)CC3)c3c2OCC3)nc2[nH]cc(Cl)c12` [Compound 102, (7-((5-chloro-4-(propylamino)-7H-pyrrolo[2,3-d]pyrimidin-2-yl)amino)-2,3-dihydrobenzofuran-4-yl)(4-morpholinopiperidin-1-yl)methanone] gave an IC50 of 10 to 100 nM.

Compound `COc1cc(S(=O)(=O)N2CCOCC2)ccc1Nc1nc(NCCS(C)(=O)=O)c2c(Cl)c[nH]c2n1` [Compound 68, 5-chloro-N2-(2-methoxy-4-(morpholinosulfonyl)phenyl)-N4-(2-(methylsulfonyl)ethyl)-7H-pyrrolo[2,3-d]pyrimidine-2,4-diamine] returned an IC50 of 10 to 100 nM.

Turning to `CCCCNc1nc(Nc2ccc(C(=O)N3CCOCC3)c3c2OCCO3)nc2[nH]cc(Cl)c12` [Compound 74, (8-((4-(butylamino)-5-chloro-7H-pyrrolo[2,3-d]pyrimidin-2-yl)amino)-2,3-dihydrobenzo[b][1,4]dioxin-5-yl)(morpholino)methanone], the IC50 lay within 10 to 100 nM.

In the case of `CC[C@@H](C)Nc1nc(Nc2ccc(C(=O)N3CCOCC3)c3c2OCCO3)nc2[nH]cc(Cl)c12` [Compound 50, (R)-(8-((4-(sec-butylamino)-5-chloro-7H-pyrrolo[2,3-d]pyrimidin-2-yl)amino)-2,3-dihydrobenzo[b][1,4]dioxin-5-yl)(morpholino)methanone], the IC50 is < 10 nM.

`COc1cc(P2(=O)CCN(C(C)=O)CC2)ccc1Nc1nc(NC(C)C)c2c(Cl)c[nH]c2n1` [Compound 89, 1-(4-(4-((5-chloro-4-(isopropylamino)-7H-pyrrolo[2,3-d]pyrimidin-2-yl)amino)-3-methoxyphenyl)-4-oxido-1,4-azaphosphinan-1-yl)ethan-1-one] returned an IC50 of 10 to 100 nM.

For `COc1cc(P2(=O)CCN(C3CC3)CC2)ccc1Nc1nc(NC2CCCC2)c2c(Cl)c[nH]c2n1` [Compound 78, 4-(4-((5-chloro-4-(cyclopentylamino)-7H-pyrrolo[2,3-d]pyrimidin-2-yl)amino)-3-methoxyphenyl)-1-cyclopropyl-1,4-azaphosphinane 4-oxide], the half-inhibitory concentration (IC50) fell in the range of 10 to 100 nM.

In the case of `O=C(c1ccc(Nc2nc(NC3CCC3)c3c(Cl)c[nH]c3n2)c2c1OCCO2)N1CCC(N2CCOCC2)CC1` [Compound 4, (8-((5-chloro-4-(cyclobutylamino)-7H-pyrrolo[2,3-d]pyrimidin-2-yl)amino)-2,3-dihydrobenzo[b][1,4]dioxin-5-yl)(4-morpholinopiperidin-1-yl)methanone], the IC50 was < 10 nM.

On to `COc1cc(P2(=O)CCN(C3CCOCC3)CC2)ccc1Nc1nc(NC2CCCCC2)c2c(Cl)c[nH]c2n1` [Compound 81, 4-(4-((5-chloro-4-(cyclohexylamino)-7H-pyrrolo[2,3-d]pyrimidin-2-yl)amino)-3-methoxyphenyl)-1-(tetrahydro-2H-pyran-4-yl)-1,4-azaphosphinane 4-oxide], for which the IC50 is 10 to 100 nM.

In the case of `CCNc1nc(Nc2ccc(S(=O)(=O)N3CCC(N4CCOCC4)CC3)cc2OC)nc2[nH]cc(Cl)c12` [Compound 15, 5-chloro-N4-ethyl-N2-(2-methoxy-4-((4-morpholinopiperidin-1-yl)sulfonyl)phenyl)-7H-pyrrolo[2,3-d]pyrimidine-2,4-diamine], the IC50 is < 10 nM.

In turn, `CC[C@@H](C)Nc1nc(Nc2ccc(S(C)(=O)=O)cc2OC)nc2[nH]cc(Cl)c12` [Compound 49, (R)—N4-(sec-butyl)-5-chloro-N2-(2-methoxy-4-(methylsulfonyl)phenyl)-7H-pyrrolo[2,3-d]pyrimidine-2,4-diamine] registered an IC50 of 10 to 100 nM.

With `CC[C@@H](C)Nc1nc(Nc2ccc(S(=O)(=O)N3CCC(N4CCOCC4)CC3)cc2OC)nc2[nH]cc(Cl)c12` [Compound 48, (R)—N4-(sec-butyl)-5-chloro-N2-(2-methoxy-4-((4-morpholinopiperidin-1-yl)sulfonyl)phenyl)-7H-pyrrolo[2,3-d]pyrimidine-2,4-diamine], the IC50 was in the range of 100 to 1000 nM.

Regarding `CS(=O)(=O)CCNc1nc(Nc2ccc(C(=O)N3CCOCC3)c3c2OCCO3)nc2[nH]cc(Cl)c12` [Compound 70, (8-((5-chloro-4-((2-(methylsulfonyl)ethyl)amino)-7H-pyrrolo[2,3-d]pyrimidin-2-yl)amino)-2,3-dihydrobenzo[b][1,4]dioxin-5-yl)(morpholino)methanone], the IC50 is < 10 nM.

Compound `COc1cc(S(=O)(=O)N2CCC(N3CCOCC3)CC2)ccc1Nc1nc(NCC2CCCC2)c2c(Cl)c[nH]c2n1` [Compound 67, 5-chloro-N4-(cyclopentylmethyl)-N2-(2-methoxy-4-((4-morpholinopiperidin-1-yl)sulfonyl)phenyl)-7H-pyrrolo[2,3-d]pyrimidine-2,4-diamine] yielded an IC50 of 100 to 1000 nM.
